# Molecular target: T1, MALT1 (Homo sapiens, UniProt Q9UDY8)
# T1 construct: Avi-tagged FL MALT-1 (Pharmaron, stored at −70° C.); Avi-tag
# T1 sequence (Q9UDY8 1-824): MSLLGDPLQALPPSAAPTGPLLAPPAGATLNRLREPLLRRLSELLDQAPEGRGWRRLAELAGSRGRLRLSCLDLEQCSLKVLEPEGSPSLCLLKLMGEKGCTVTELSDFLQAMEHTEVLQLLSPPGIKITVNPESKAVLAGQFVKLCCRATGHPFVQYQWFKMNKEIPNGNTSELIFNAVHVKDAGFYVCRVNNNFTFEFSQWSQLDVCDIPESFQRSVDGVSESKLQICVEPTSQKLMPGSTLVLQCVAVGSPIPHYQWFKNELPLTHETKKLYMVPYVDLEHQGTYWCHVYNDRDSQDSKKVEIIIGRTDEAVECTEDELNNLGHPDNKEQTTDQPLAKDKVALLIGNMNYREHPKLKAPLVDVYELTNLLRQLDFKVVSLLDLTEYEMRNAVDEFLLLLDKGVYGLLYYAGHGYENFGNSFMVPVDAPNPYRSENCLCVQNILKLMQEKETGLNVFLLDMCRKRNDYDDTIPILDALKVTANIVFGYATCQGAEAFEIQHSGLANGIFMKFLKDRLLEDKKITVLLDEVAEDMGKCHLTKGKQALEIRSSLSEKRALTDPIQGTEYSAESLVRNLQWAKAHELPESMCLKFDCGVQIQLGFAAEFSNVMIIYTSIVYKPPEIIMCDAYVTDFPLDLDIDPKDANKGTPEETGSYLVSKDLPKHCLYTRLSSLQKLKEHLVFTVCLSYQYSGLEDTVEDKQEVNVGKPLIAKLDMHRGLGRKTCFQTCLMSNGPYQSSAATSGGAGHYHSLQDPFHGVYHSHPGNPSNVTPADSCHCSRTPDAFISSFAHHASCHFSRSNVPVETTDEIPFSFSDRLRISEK
# Experiment: MALT1 inhibition assay (MALT-1 Fluorogenic Peptide Cleavage Assay, Ac-LRSR-AMC substrate)
# Type: biochemical
# Details: Avi-tagged FL MALT-1, 30 min pre-incubation, 90 min reaction at room temperature, fluorescence intensity
# Outline: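 Full-length Avi-tagged MALT1 pre-incubated 30 min at room temperature with compounds (2% DMSO final) in HEPES pH 6.89, sodium citrate, TCEP, EDTA, CHAPS buffer. Ac-LRSR-AMC added from 50 µM (Km) or […] working stocks; 90 min at room temperature, AMC fluorescence (ex 342/em 441 nm); IC50 from % inhibition curves.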
row,Compound,IC50 [nM]
1,Cn1nc(OCc2ccccc2)c(C(F)(F)F)c1C(=O)Nc1ccnc(C(F)(F)F)c1 [Compound I-130],500 to 2500
2,Cn1nc(-c2ccccc2)c(C(F)(F)F)c1C(=O)Nc1ccnc(C2CC2)c1 [Compound I-134],2500 to 10000
3,Cc1cc(NC(=O)c2c(C(F)(F)F)c(-c3ccccc3)nn2C)cnc1-n1ccnn1 [Compound I-136],2500 to 10000
4,Cn1nc(-c2ccccc2)c(C(F)(F)F)c1C(=O)Nc1cc(C2CC2)ccn1 [Compound I-137],> 10000
5,Cn1nc(-c2ccccc2)c(C(F)(F)F)c1C(=O)Nc1cc(C(F)(F)F)ccn1 [Compound I-138],500 to 2500
6,COc1ncc(NC(=O)c2c(C(F)(F)F)c(-c3cccc4ncccc34)nn2C)cc1C#N [Compound I-141],2500 to 10000
7,Cn1nc(C(=O)Nc2cnc(-n3nccn3)c(Cl)c2)c(C(F)(F)F)c1-c1cccc2c1OCO2 [Compound I-142],< 500
8,Cn1nc(Cc2ccccc2)c(C(F)(F)F)c1C(=O)Nc1cnc(-n2nccn2)c(Cl)c1 [Compound I-143],500 to 2500
9,"Cn1nc(-c2ccccc2)c(C(F)(F)F)c1C(=O)Nc1ccnc(C(F)(F)F)c1 [Compound I-147, 1-methyl-3-phenyl-4-(trifluoromethyl)-N-(2-(trifluoromethyl)pyridin-4-yl)-1H-pyrazole-5-carboxamide]",< 500
10,Cn1nc(C(=O)Nc2cnc(-n3nccn3)c(Cl)c2)c(C(F)(F)F)c1-c1ccccc1 [Compound I-148],< 500
11,Cn1nc(C(=O)Nc2ccc(C(=O)N3CC(O)C3)c(Cl)c2)c(C(F)(F)F)c1-c1ccccc1 [Compound I-149],> 10000
12,Cn1nc(-c2ccccc2)c(C(F)(F)F)c1C(=O)Nc1ccc(C(=O)N2CC(O)C2)c(Cl)c1 [Compound I-150],2500 to 10000
13,Cn1nc(C(=O)Nc2ccc(C(=O)N3CC(O)C3)c(Cl)c2)cc1-c1ccccc1 [Compound I-155],> 10000
14,COc1ncc(NC(=O)c2c(C(F)(F)F)c(-c3cccc4ccoc34)nn2C)cc1C#N [Compound I-156],< 500
15,"Cn1nc(-c2cccc3c2OCC3)c(C(F)(F)F)c1C(=O)Nc1ccnc(C(F)(F)F)c1 [Compound I-158, 3-(2,3-dihydrobenzofuran-7-yl)-1-methyl-4-(trifluoromethyl)-N-(2-(trifluoromethyl)pyridin-4-yl)-1H-pyrazole-5-carboxamide]",< 500
16,"Cn1nc(-c2cccc3ncnn23)c(C(F)(F)F)c1C(=O)Nc1ccnc(C(F)(F)F)c1 [Compound I-162, 3-([1,2,4]triazolo[1,5-a]pyridin-5-yl)-1-methyl-4-(trifluoromethyl)-N-(2-(trifluoromethyl)pyridin-4-yl)-1H-pyrazole-5-carboxamide]",500 to 2500
17,[2H]C([2H])([2H])n1nc(-c2ccccc2)c(C(F)(F)F)c1C(=O)Nc1cnc(-n2nccn2)c(Cl)c1 [Compound I-165],< 500

row,Compound,IC50 [nM]
1,[2H]C([2H])([2H])n1nc(C(=O)Nc2cnc(-n3nccn3)c(Cl)c2)c(C(F)(F)F)c1-c1ccccc1 [Compound I-166],< 500
2,[2H]C([2H])([2H])n1nc(-c2ccccc2)c(C(F)(F)F)c1C(=O)Nc1cnc(-n2nccn2)c(C#N)c1 [Compound I-167],< 500
3,CCn1nc(C(=O)Nc2cnc(-n3nccn3)c(Cl)c2)c(C(F)(F)F)c1-c1ccccc1 [Compound I-168],< 500
4,CCn1nc(-c2ccccc2)c(C(F)(F)F)c1C(=O)Nc1cnc(-n2nccn2)c(Cl)c1 [Compound I-170],< 500
5,"CN(C)CCn1nc(-c2ccccc2)c(C(F)(F)F)c1C(=O)Nc1cnc(-n2nccn2)c(Cl)c1 [Compound I-171, N-(5-chloro-6-(2H-1,2,3-triazol-2-yl)pyridin-3-yl)-1-(2-(dimethylamino)ethyl)-3-phenyl-4-(trifluoromethyl)-1H-pyrazole-5-carboxamide]",500 to 2500
6,COCCn1nc(-c2ccccc2)c(C(F)(F)F)c1C(=O)Nc1cnc(-n2nccn2)c(Cl)c1 [Compound I-172],500 to 2500
7,COCCn1nc(C(=O)Nc2cnc(-n3nccn3)c(Cl)c2)c(C(F)(F)F)c1-c1ccccc1 [Compound I-173],> 10000
8,COCCn1nc(-c2ccccc2)c(C(F)(F)F)c1C(=O)Nc1cnc(-n2nccn2)c(C#N)c1 [Compound I-174],500 to 2500
9,CN(C)CCn1nc(-c2ccccc2)c(C(F)(F)F)c1C(=O)Nc1cnc(-n2nccn2)c(C#N)c1 [Compound I-175],2500 to 10000
10,O=C(Nc1cnc(-n2nccn2)c(Cl)c1)c1c(C(F)(F)F)c(-c2ccccc2)nn1C1COC1 [Compound I-176],2500 to 10000
11,N#Cc1cc(NC(=O)c2c(C(F)(F)F)c(-c3ccccc3)nn2C2COC2)cnc1-n1nccn1 [Compound I-177],2500 to 10000
12,O=C(Nc1ccnc(C(F)(F)F)c1)c1c(C(F)(F)F)c(-c2ccccc2)nn1C1COC1 [Compound I-178],> 10000
13,"O=C(Nc1cnc(-n2nccn2)c(Cl)c1)c1c(C(F)(F)F)c(-c2ccccc2)nn1C(F)F [Compound I-179, N-(5-chloro-6-(2H-1,2,3-triazol-2-yl)pyridin-3-yl)-1-(difluoromethyl)-3-phenyl-4-(trifluoromethyl)-1H-pyrazole-5-carboxamide]",< 500
14,O=C(Nc1cnc(-n2nccn2)c(Cl)c1)c1nn(C(F)F)c(-c2ccccc2)c1C(F)(F)F [Compound I-180],< 500
15,O=C(Nc1cnc(-n2nccn2)c(Cl)c1)c1cc(-c2ccccc2)nn1C(F)F [Compound I-181],2500 to 10000
16,O=C(Nc1cnc(-n2nccn2)c(Cl)c1)c1cc(-c2ccccc2)n(C(F)F)n1 [Compound I-182],> 10000

# Next, values leading:
row,IC50 [nM],Compound
1,< 500,Cn1nc(-c2cccc3ccoc23)c(C(F)(F)F)c1C(=O)Nc1cnc(-n2nccn2)c(C(F)F)c1 [Compound I-128]
2,< 500,Cn1nc(-c2cccc3ccoc23)c(C(F)(F)F)c1C(=O)Nc1cnc(-n2nccn2)c(Cl)c1 [Compound I-129]
3,< 500,Cn1nc(-c2cccc3c(=O)[nH]ccc23)c(C(F)(F)F)c1C(=O)Nc1cnc(-n2nccn2)c(C(F)F)c1 [Compound I-131]
4,< 500,Cn1nc(-c2cccc3c(=O)[nH]ccc23)c(C(F)(F)F)c1C(=O)Nc1cnc(-n2nccn2)c(C(F)(F)F)c1 [Compound I-132]
5,< 500,Cn1nc(-c2cccc3c(=O)[nH]ccc23)c(C(F)(F)F)c1C(=O)Nc1cnc(-n2nccn2)c(Cl)c1 [Compound I-133]
6,500 to 2500,Cc1cc(NC(=O)c2c(C(F)(F)F)c(-c3ccccc3)nn2C)cnc1-n1nccn1 [Compound I-135]
7,< 500,"Cn1nc(-c2cccc3cnccc23)c(C(F)(F)F)c1C(=O)Nc1cnc(-n2nccn2)c(Cl)c1 [Compound I-140, N-(5-chloro-6-(2H-1,2,3-triazol-2-yl)pyridin-3-yl)-3-(isoquinolin-5-yl)-1-methyl-4-(trifluoromethyl)-1H-pyrazole-5-carboxamide]"
8,< 500,Cn1nc(-c2cccc3c2OCO3)c(C(F)(F)F)c1C(=O)Nc1cnc(-n2nccn2)c(Cl)c1 [Compound I-144]
9,< 500,Cn1nc(-c2cccc3occc23)c(C(F)(F)F)c1C(=O)Nc1cnc(-n2nccn2)c(Cl)c1 [Compound I-145]
10,< 500,Cn1nc(-c2cccc3occc23)c(C(F)(F)F)c1C(=O)Nc1cnc(-n2nccn2)c(C(F)(F)F)c1 [Compound I-146]
11,< 500,Cn1nc(-c2ccccc2)c(C(F)(F)F)c1C(=O)Nc1cnc(-n2nccn2)c(C(F)(F)F)c1 [Compound I-151]
12,< 500,Cn1nc(-c2ccccc2)c(C(F)(F)F)c1C(=O)Nc1cnc(-n2nccn2)c(Cl)c1 [Compound I-152]
13,< 500,Cn1nc(-c2ccccc2)c(C(F)(F)F)c1C(=O)Nc1cnc(-n2nccn2)c(C#N)c1 [Compound I-153]
14,< 500,Cn1nc(-c2cccc3c2OC(F)(F)O3)c(C(F)(F)F)c1C(=O)Nc1cnc(-n2nccn2)c(Cl)c1 [Compound I-154]
15,< 500,Cn1nc(-c2cccc3c(=O)[nH]ccc23)c(C(F)(F)F)c1C(=O)Nc1cnc(-n2nccn2)c(C#N)c1 [Compound I-157]
16,< 500,Cn1nc(-c2cccc3c2OCC3)c(C(F)(F)F)c1C(=O)Nc1cnc(-n2nccn2)c(Cl)c1 [Compound I-159]
17,500 to 2500,Cn1nc(-c2cncc3ccccc23)c(C(F)(F)F)c1C(=O)Nc1ccnc(C(F)(F)F)c1 [Compound I-160]
18,< 500,Cn1nc(-c2cccc3nccn23)c(C(F)(F)F)c1C(=O)Nc1cnc(-n2nccn2)c(Cl)c1 [Compound I-163]
